From US9771378B2 (Denali Therapeutics, Inc., priority 2014, dated 2017)

test system: Aβ42 (human neuroglioma H4 cells expressing human wild type APP751); assay: In vitro cell screening assay with sandwich ELISA quantification of Aβ42 peptide; type: cell-based; conditions: H4 cells stably expressing human wild type APP751; Pro293 chemically defined medium; compounds 0.003-10 μM; incubated overnight (16-18 h); supernatant Aβ42 by sandwich ELISA; normalized to DMSO and DAPT; read-out: Aβ42 H4 Prot Fre IC50
Procedure, shortened: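 H4 neuroglioma cells stably expressing human wild-type APP751 were treated in Pro293 medium with compounds (0.003-10 μM, 0.33% DMSO) for 16-18 h at 37° C. Secreted Aβ42 measured by sandwich ELISA (C-terminal capture, 4G8-HRP detection, TMB, 450 nm). IC50 by variable-slope sigmoidal regression on percent of DMSO control.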

Question: For `COc1cc(Nc2ncc3c(n2)N(C)C(c2cc(F)cc(F)c2)CO3)cnc1-n1cnc(C)c1` (single isomer, unassigned; (-)) [Example 189B], which IC50 is on record?
Answer: 655 nM

Question: How did the IC50 turn out when `Cc1cn(-c2ccc(Nc3ncc4c(n3)N(C)C(c3cc(F)cc(F)c3)CO4)nc2C#N)cn1` (single isomer, unassigned; (-)) [Example 192A, (−)-6-((7-(3,5-difluorophenyl)-8-methyl-7,8-dihydro-6H-pyrimido [5,4-b] [1, 4]oxazin-2-yl)amino)-3-(4-methyl-1H-imidazol-1-yl) picolinonitrile] was run?
Answer: > 3000 nM

Question: Which IC50 does the source give for `COc1cc(Nc2ncc3c(n2)N(C)C(C(F)(F)F)CO3)cnc1-n1cnc(C)c1` (single isomer, unassigned; (-)) [Example 193B] here?
Answer: 35 nM

Question: How did the IC50 turn out when `Cc1cn(-c2ccc(Nc3ncc4c(n3)N(C)C(C)CO4)cn2)cn1` (single isomer, unassigned; (-)) [Example 194B] was run?
Answer: > 3000 nM

Question: `COc1ccc(C2COc3cnc(Nc4ccc(-n5cnc(C)c5)c(OC)c4)nc3N2C)c(C)c1` (single isomer, unassigned; (-)) [Example 199B] was tested. Which IC50 did it give?
Answer: 95 nM

Question: With `COc1cc(Nc2ncc3c(n2)N(C)C(C)CO3)ccc1-n1cnc(Cl)c1` (single isomer, unassigned; (-)) [Example 202A] as the compound, how does the IC50 read?
Answer: 167 nM

Question: How did the IC50 turn out when `Cc1cn(-c2ccc(Nc3ncc4c(n3)N(C)C(c3cc(F)cc(F)c3)CO4)cc2C#N)cn1` (single isomer, unassigned; (-)) [Example 203B, (−)-5-((7-(3,5-difluorophenyl)-8-methyl-7,8-dihydro-6H-pyrimido [5,4-b] [1, 4]oxazin-2-yl)amino)-2-(4-methyl-1H-imidazol-1-yl) benzonitrile] was run?
Answer: 210 nM

Question: How did the IC50 turn out when `COc1cc(Nc2ncc3c(n2)N(C)C(c2cc(F)cc(F)c2)CO3)ccc1-n1cnc(Cl)c1` (single isomer, unassigned; (-)) [Example 204A] was run?
Answer: 433 nM

Question: `Cc1cn(-c2ccc(Nc3ncc4c(n3)N(C)C(C)CO4)cc2C#N)cn1` (single isomer, unassigned; (-)) [Example 205B, (−)-5-((7,8-dimethyl-7,8-dihydro-6H-pyrimido [5,4-b] [1, 4]oxazin-2-yl)amino)-2-(4-methyl-1H-imidazol-1-yl) benzonitrile] was tested. Which IC50 did it give?
Answer: 259 nM

Question: `COc1cc(Nc2ncc3c(n2)N(C)C(c2cc(F)cc(F)c2)CO3)cnc1-n1cnc(C(F)(F)F)c1` (single isomer, unassigned; (-)) [Example 206B] was tested. Which IC50 did it give?
Answer: 704 nM

Question: For `COc1ccc(C)c(C2COc3cnc(Nc4cnc(-n5cnc(C)c5)c(OC)c4)nc3N2C)c1` (single isomer, unassigned; (-)) [Example 207B], which IC50 is on record?
Answer: 96 nM

Question: With `COc1ccc(Cl)c(C2COc3cnc(Nc4cnc(-n5cnc(C)c5)c(OC)c4)nc3N2C)c1` (single isomer, unassigned; (-)) [Example 208B] as the compound, how does the IC50 read?
Answer: 136 nM

Question: Which IC50 does the source give for `COc1ccc(C2COc3cnc(Nc4cnc(-n5cnc(C)c5)c(OC)c4)nc3N2C)c(Cl)c1` (single isomer, unassigned; (-)) [Example 209B] here?
Answer: 55 nM

Question: How did the IC50 turn out when `Cc1cn(-c2ncc(Nc3ncc4c(n3)N(C)C(c3cc(F)cc(F)c3)CO4)cc2Cl)cn1` (single isomer, unassigned; (-)) [Example 210B] was run?
Answer: 2340 nM

Question: `COc1cc(Nc2ncc3c(n2)N(C)C(c2cc(F)cc(F)c2)CO3)cnc1-n1cnc(C#N)c1` (single isomer, unassigned; (-)) [Example 211B, (−)-1-(5-((7-(3,5-difluorophenyl)-8-methyl-7,8-dihydro-6H-pyrimido [5,4-b] [1, 4]oxazin-2-yl)amino)-3-methoxypyridin-2-yl)-1H-imidazole-4-carbonitrile] was tested. Which IC50 did it give?
Answer: > 3000 nM

Question: How did the IC50 turn out when `COc1cc(Nc2ncc3c(n2)N(C)C(C2CC(F)(F)C2)CO3)ccc1-n1cnc(C)c1` (single isomer, unassigned; (-)) [Example 212A] was run?
Answer: 348 nM

Question: Which IC50 does the source give for `Cc1cn(-c2ccc(Nc3ncc4c(n3)N(C)C(C)CO4)cc2OC(F)(F)F)cn1` (single isomer, unassigned; (-)) [Example 213A] here?
Answer: > 3000 nM

Question: `Cc1cn(-c2ccc(Nc3ncc4c(n3)N(C)C(C)CO4)cc2C(F)F)cn1` (single isomer, unassigned; (-)) [Example 214B] was tested. Which IC50 did it give?
Answer: 2260 nM

Question: How did the IC50 turn out when `COc1ccc(C2COc3cnc(Nc4cnc(-n5cnc(C)c5)c(OC)c4)nc3N2C)c(C)c1` (single isomer, unassigned; (-)) [Example 215B] was run?
Answer: 96 nM

Question: For `COc1cc(Nc2ncc3c(n2)N(C)C(C2CCC(F)(F)CC2)CO3)ccc1-n1cnc(C)c1` (single isomer, unassigned; (-)) [Example 216A], which IC50 is on record?
Answer: 320 nM

Question: Which IC50 does the source give for `COc1cc(Nc2ncc3c(n2)N(C)C(C2CC(F)(F)C2)CO3)cnc1-n1cnc(C)c1` (single isomer, unassigned; (-)) [Example 219B] here?
Answer: 398 nM

Question: With `COc1cc(Nc2ncc3c(n2)N(C)C(c2cc(F)cc(F)c2)CO3)ncc1-n1cnc(C)c1` (single isomer, unassigned; (-)) [Example 220A] as the compound, how does the IC50 read?
Answer: > 3000 nM

Question: For `COc1cc(Nc2ncc3c(n2)N(C)C(C2CCC(F)(F)CC2)CO3)cnc1-n1cnc(C)c1` (single isomer, unassigned; (-)) [Example 221B], which IC50 is on record?
Answer: 325 nM

Question: `Cc1cn(-c2ccc(Nc3ncc4c(n3)N(C)C(c3cc(F)cc(F)c3)CO4)cc2C(F)F)cn1` (single isomer, unassigned; (-)) [Example 222B] was tested. Which IC50 did it give?
Answer: > 3000 nM

Question: For `Cc1cn(-c2ccc(Nc3ncc4c(n3)N(C)C(c3cc(F)cc(F)c3)CO4)cc2OC(F)(F)F)cn1` (single isomer, unassigned; (-)) [Example 223A], which IC50 is on record?
Answer: > 3000 nM

Question: With `CN1c2nc(Nc3ccc(C#N)cc3)ncc2OCC1C(F)(F)F` (single isomer, unassigned; (-)) [Example 226B, (−)-4-((8-methyl-7-(trifluoromethyl)-7,8-dihydro-6H-pyrimido [5,4-b] [1, 4]oxazin-2-yl)amino) benzonitrile] as the compound, how does the IC50 read?
Answer: > 3000 nM

Question: With `COc1cc(Nc2ncc3c(n2)N(C)C(C(F)(F)F)CO3)ccc1-n1cnc(Cl)c1` (single isomer, unassigned; (-)) [Example 228B] as the compound, how does the IC50 read?
Answer: 14 nM

Question: For `Cc1cn(-c2ncc(Nc3ncc4c(n3)N(C)C(C(F)(F)F)CO4)cc2Cl)cn1` (single isomer, unassigned; (-)) [Example 229A], which IC50 is on record?
Answer: 215 nM

Question: With `COc1cc(Nc2ncc3c(n2)N(C)C(C(F)(F)F)CO3)ccc1C#N` (single isomer, unassigned; (-)) [Example 230B, (−)-2-methoxy-4-((8-methyl-7-(trifluoromethyl)-7,8-dihydro-6H-pyrimido [5,4-b] [1, 4]oxazin-2-yl)amino) benzonitrile] as the compound, how does the IC50 read?
Answer: 717 nM

Question: For `COc1cc(Nc2ncc3c(n2)N(C)C(C2CCC(F)(F)CC2)CO3)cnc1-c1cnn(C)c1` (single isomer, unassigned; (-)) [Example 231B], which IC50 is on record?
Answer: > 3000 nM

Question: Which IC50 does the source give for `Cc1cn(-c2ccc(Nc3ncc4c(n3)N(C)C(C(F)(F)F)CO4)cc2C#N)cn1` (single isomer, unassigned; (-)) [Example 232B, (−)-2-(4-methyl-1H-imidazol-1-yl)-5-((8-methyl-7-(trifluoromethyl)-7,8-dihydro-6H-pyrimido [5,4-b] [1, 4]oxazin-2-yl)amino) benzonitrile] here?
Answer: 17 nM

Question: With `CN1c2nc(Nc3ccc(C#N)cc3)ncc2OCC1c1cc(F)cc(F)c1` (single isomer, unassigned; (-)) [Example 233B, (−)-4-((7-(3,5-difluorophenyl)-8-methyl-7,8-dihydro-6H-pyrimido [5,4-b] [1, 4]oxazin-2-yl)amino) benzonitrile] as the compound, how does the IC50 read?
Answer: > 3000 nM
